Data on one substance can be found in patent US20220202912A1, “Polypeptides in Preparation of Drugs for Treatment or Prevention of Rheumatoid Arthritis” (priority 2011, published 2022).

Data set [1] relates to cotton ball granuloma. In kind it is in vivo, SD rats. To be noted: day 8. On the procedure:
The rats are randomly divided into a model control group, a positive control (dexamethasone) group, and mPEG-SC20k-HM-3 groups using subcutaneous injection at a high dose, a medium dose and a low dose, a total of 5 groups, and the drugs are administered to each group of animals by subcutaneous injection, for 7 days in succession.
Rats in each group are anesthetized with pentobarbital sodium (40 mg/kg) by intraperitoneal injection, and the abdominal coat is cut off. The skin in the middle of the lower abdomen is cut open under aseptic condition, and the incision is about 1 cm long. The subcutaneous tissue is expanded by vascular forceps, and 30 mg of sterile dry cotton balls (weighed accurately by an electronic balance before the test, and undergoing conventional autoclaving and drying for later use) are implanted hypodermically into the groin on one side. The incision is sutured, and an appropriate amount of amoxicillin is sprinkled on the incision to prevent infection.
The drug is administered on the same day after surgery, and is administered for 7 days in succession. On day 8, the rats are killed by cervical dislocation, the cotton balls are removed surgically, the fat tissue is removed, and the […] at 60° C. The mass of granuloma is expressed in mg (granulomatoma)/100 g (body weight). The granuloma mass difference between each administration group and the model control group is compared, and the inhibition rate is calculated. Data statistical analysis is performed on significant differences between the groups.
Inhibition rate (%)=(average granuloma mass of model control group−average granuloma mass of administration group)/average granuloma mass of model control group×100%.

Data set [2] deals with CIA mouse models. Put plainly: collagen-induced arthritis (CIA) mouse models. In kind it is in vivo, DBA/1 mice. To be noted: for clinical scoring / swelling of joints / swelling of paws: 5 times.
In data set [3] the test system is human U937 cells. Put plainly: human whole genome array of U937-derived macrophages. In kind it is cell-based. The note with it: 13.5 μmol/L, 48 h. How it is done: 1.1.1 U937 cells are cultured in a 6-well plate at 3×10^6 cells/mL per well overnight, and PMA (25 ng/mL) is added on the next day for induction for 48 h. After the cells adhere, cultured supernatant is pipetted away. The cells are treated with mPEG-SC20k-HM-3 (test group) or a medium (negative control group) at 13.5 μmol/L at 37° C. for 48 h.
1.1.2 1×10^6 cells are taken from each of two groups of samples, and the solution has […], and is centrifuged for 5 min. The supernatant is removed. 1 mL of TRIZOL lysis solution is added and mixed uniformly, and the solution stands at room temperature for 5 min.
1.2 DNase I digest the RNA sample to remove any genomic DNA that may be contained therein. […]
1.8.2 Sample adding: An membrane on the PCR Array is opened, 10 μL of mixture is added to each well corresponding to the PCR Array, and a lid is closed to seal the PCR Array; after a real-time quantitative PCR program is set, the PCR Array is placed on the real-time quantitative PCR instrument for PCR reaction, and the prepared PCR Array is placed on ice before the PCR program is set. […]
1.9.3 2^−ΔΔCt values of the test group and the control group are calculated to analyze the difference in expression of the corresponding genes between the test group and the control group. […]

The subject of data set [4] is HUVECs. Kind of data set: Western blot of protein expression in HUVECs. The class given is cell-based, human. To be noted: 0.5-8.0 μmol/L, 24 h. How it is done:
3.2 After the third generation of human umbilical vein endothelial cells (HUVECs) are cultured in a 6-well plate to more than 80% fusion, the polypeptide mPEG-SC20k-HM-3 is added to final concentrations of 0.5, 1.0, 2.0, 4.0, 8.0 μmol/L, and PBS is used as a blank control. The cells are incubated in a CO2 incubator at 37° C. for 24 h; the cells are digested with 0.25% trypsin and counted, the solution is centrifuged at 3000 rpm for 5 min, and the cells are collected.
3.3 A protein extract solution is added at 20 μL/1×10^5 cells, and the cells are pipetted and dispersed, and stand at 4° C. for 30 min to lyse the cells.
3.4 1/4 volume of 5×protein loading buffer is added, and boiling water bath is performed for 5-10 min.
3.5 20 μL of protein sample is taken and 10% SDS-PAGE electrophoresis is performed.
3.6 The protein on the gel is transferred to the PVDF membrane by using a wetting transfer method with a constant current of 100 mA for 1-2.5 h.
3.7 The PVDF membrane is blocked with a blocking solution at room temperature for 2 h.
3.8 The membrane is washed for 3 times with PBST, 5 min each time. A primary antibody is added and the membrane stands at 4° C. overnight or is incubated at 37° C. for 2 h.
3.9 The membrane is washed for 3 times with PBST, 5 min each time. A secondary antibody is added and the membrane is incubated at room temperature for more than 2 h. […]

Where [5] appears, read: high dose 40 mg/kg once the other day.
Setting [6] is: low dose 10 mg/kg once the other day.
The mark [7] stands for this setting: medium dose 20 mg/kg once the other day.

Like-named read-outs stand apart in the source and are kept apart here. Where no end group is shown, it is not given here.

With “mPEG-SC20k-Ile-Val-Arg-Arg-Ala-Asp-Arg-Ala-Ala-Val-Pro-Gly-Gly-Gly-Gly-Arg-Gly-Asp ({mPEG‑SC 20k}-IVRRADRAAVPGGGGRGD) [polypeptide III, No. 3]”, in data set [1] (5 mg/kg sc once two days (G5)), the “Inhibition rate of cotton ball granuloma” value is 35.67% and the cotton ball granuloma is recorded as 0.19 ± 0.03 mg(cotton ball granuloma)/100 g(weight). In data set [1] (10 mg/kg sc once two days (G4)), the “Inhibition rate of cotton ball granuloma” value is 39.33% and the cotton ball granuloma is reported as 0.18 ± 0.02 mg(cotton ball granuloma)/100 g(weight). Also, in data set [1] (20 mg/kg sc once two days (G3)), the “Inhibition rate of cotton ball granuloma” value is reported as 38.23% and the cotton ball granuloma is reported as 0.18 ± 0.03 mg(cotton ball granuloma)/100 g(weight). In data set [2] (setting [5]), the clinical scoring came to 2.00 ± 2.37, the swelling of joints is 0.07 mm and the swelling of paws is 0.14 ± 0.42 mm. In data set [2] (setting [6]), this substance displayed a clinical scoring of 4.83 ± 2.99, a swelling of joints of 0.23 mm and a swelling of paws of 0.37 ± 0.35 mm. Also, in data set [2] (setting [7]), the clinical scoring amounted to 6.33 ± 4.23, the swelling of joints turned out to be 0.12 mm and the swelling of paws was determined as 0.34 ± 0.42 mm. For the same substance, the “therapeutic effect on collagen-induced arthritis in mice (conclusion)” value in data set [2] (mouse, in vivo) is “CONCLUSION: polypeptide III has therapeutic effect on collagen-induced arthritis in mice”. In data set [3], the “number of related factors down-regulated at the mRNA level” value is listed as 538 and the “number of related factors up-regulated at the mRNA level” value is given as 499. In data set [4], the “expression of VEGF in HUVECs” value is “down-regulated”; the “expression of integrin αν, integrin β3, MEK1, p-MEK1, PI3K, AKT1, p-AKT1, ERK1/2 and p-ERK1/2 in HUVECs” value is given as “down-regulated”.
